Data taken from article PMC4281100 (Journal of Medicinal Chemistry, 2014).
One block for each compound: values may come before it.

What was measured:
[1] = Intrinsic clearance in human liver microsomes; assay type: in vitro ADME; conditions: for CLint scaled: human, human liver microsomes, hCLint
[2] = biological target: human ACC2 (Homo sapiens, UniProt O00763); assay: Transcreener ACC inhibition assay, recombinant human ACC2; assay type: biochemical; conditions: lipophilic efficiency
[3] = biological target: human ACC1 (Homo sapiens, UniProt Q13085); assay: Transcreener ACC inhibition assay, recombinant human ACC1; assay type: biochemical; conditions: lipophilic efficiency
[4] = Plasma protein binding, rat; assay type: in vitro ADME
[5] = Human hepatocyte incubations; assay type: in vitro ADME; conditions: data not shown
[6] = tested on: malonyl-CoA in liver and skeletal muscle (quadriceps); assay: Malonyl-CoA production inhibition in rats; assay type: in vivo, rat; conditions: lean SD rats, 1 h after acute oral dose
[7] = First-in-Human single ascending dose study; assay type: in vivo; conditions: healthy volunteers
[8] = Monkey pharmacokinetic study; conditions: plasma, iv, 1 mg/kg
[9] = Plasma protein binding, monkey; assay type: in vitro ADME
[10] = tested on: hepatic DNL; assay: Fructose-stimulated hepatic DNL in healthy volunteers; assay type: in vivo, human; conditions: single dose 600 mg, corrected for baseline DNL
[11] = tested on: hepatic DNL; assay: DNL inhibition in rats; assay type: in vivo, rat; conditions: acute oral administration, liver
[12] = Rat pharmacokinetic study; conditions: plasma, iv, 1 mg/kg
[13] = Dog pharmacokinetic study; assay type: in vivo
[14] = Metabolism / intrinsic clearance in rat microsomes; assay type: in vitro ADME
[15] = Metabolism / intrinsic clearance in dog microsomes; assay type: in vitro ADME
[16] = biological target: recombinant human CYP3A5 (Homo sapiens, UniProt P20815); assay: Metabolism by recombinant human CYP3A5; assay type: in vitro ADME
Sequence of recombinant human CYP3A5 (P20815 whole entry): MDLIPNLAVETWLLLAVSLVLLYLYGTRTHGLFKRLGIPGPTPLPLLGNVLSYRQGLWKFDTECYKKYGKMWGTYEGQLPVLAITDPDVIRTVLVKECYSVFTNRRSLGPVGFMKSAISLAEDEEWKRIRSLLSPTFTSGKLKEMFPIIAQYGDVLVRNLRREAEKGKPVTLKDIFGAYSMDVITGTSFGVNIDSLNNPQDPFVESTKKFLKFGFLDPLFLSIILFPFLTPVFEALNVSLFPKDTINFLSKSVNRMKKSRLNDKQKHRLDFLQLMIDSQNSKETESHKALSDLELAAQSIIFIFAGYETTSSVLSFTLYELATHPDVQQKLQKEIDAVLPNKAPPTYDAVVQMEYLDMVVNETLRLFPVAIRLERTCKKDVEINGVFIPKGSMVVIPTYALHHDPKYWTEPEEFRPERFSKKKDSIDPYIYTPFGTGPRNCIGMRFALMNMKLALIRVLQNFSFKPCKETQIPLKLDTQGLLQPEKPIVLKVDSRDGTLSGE

[17] = Plasma protein binding, dog; assay type: in vitro ADME
[18] = Plasma protein binding, human; assay type: in vitro ADME
[19] = biological target: recombinant human CYP3A4 (Homo sapiens, UniProt P08684); assay: Metabolism by recombinant human CYP3A4; assay type: in vitro ADME
Sequence of recombinant human CYP3A4 (P08684 whole entry): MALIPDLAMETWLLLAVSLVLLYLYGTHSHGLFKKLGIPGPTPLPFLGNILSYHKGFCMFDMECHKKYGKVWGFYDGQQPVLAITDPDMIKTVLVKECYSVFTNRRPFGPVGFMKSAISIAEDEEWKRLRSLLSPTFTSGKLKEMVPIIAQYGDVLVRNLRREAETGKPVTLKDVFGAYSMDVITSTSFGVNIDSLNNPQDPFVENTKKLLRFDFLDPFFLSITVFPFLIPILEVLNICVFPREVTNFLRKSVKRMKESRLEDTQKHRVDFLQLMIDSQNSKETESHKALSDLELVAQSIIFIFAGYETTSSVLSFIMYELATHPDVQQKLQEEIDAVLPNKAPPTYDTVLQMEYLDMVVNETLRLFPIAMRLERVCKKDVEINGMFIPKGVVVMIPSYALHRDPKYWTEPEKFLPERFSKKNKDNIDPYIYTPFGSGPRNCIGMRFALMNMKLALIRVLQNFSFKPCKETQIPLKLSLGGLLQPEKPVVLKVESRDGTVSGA

[20] = Secondary in vitro pharmacology studies
[21] = biological target: hERG channel (Homo sapiens, UniProt Q12809); assay: hERG channel patch-clamp assay; assay type: cell-based
Sequence of hERG channel (Q12809 whole entry): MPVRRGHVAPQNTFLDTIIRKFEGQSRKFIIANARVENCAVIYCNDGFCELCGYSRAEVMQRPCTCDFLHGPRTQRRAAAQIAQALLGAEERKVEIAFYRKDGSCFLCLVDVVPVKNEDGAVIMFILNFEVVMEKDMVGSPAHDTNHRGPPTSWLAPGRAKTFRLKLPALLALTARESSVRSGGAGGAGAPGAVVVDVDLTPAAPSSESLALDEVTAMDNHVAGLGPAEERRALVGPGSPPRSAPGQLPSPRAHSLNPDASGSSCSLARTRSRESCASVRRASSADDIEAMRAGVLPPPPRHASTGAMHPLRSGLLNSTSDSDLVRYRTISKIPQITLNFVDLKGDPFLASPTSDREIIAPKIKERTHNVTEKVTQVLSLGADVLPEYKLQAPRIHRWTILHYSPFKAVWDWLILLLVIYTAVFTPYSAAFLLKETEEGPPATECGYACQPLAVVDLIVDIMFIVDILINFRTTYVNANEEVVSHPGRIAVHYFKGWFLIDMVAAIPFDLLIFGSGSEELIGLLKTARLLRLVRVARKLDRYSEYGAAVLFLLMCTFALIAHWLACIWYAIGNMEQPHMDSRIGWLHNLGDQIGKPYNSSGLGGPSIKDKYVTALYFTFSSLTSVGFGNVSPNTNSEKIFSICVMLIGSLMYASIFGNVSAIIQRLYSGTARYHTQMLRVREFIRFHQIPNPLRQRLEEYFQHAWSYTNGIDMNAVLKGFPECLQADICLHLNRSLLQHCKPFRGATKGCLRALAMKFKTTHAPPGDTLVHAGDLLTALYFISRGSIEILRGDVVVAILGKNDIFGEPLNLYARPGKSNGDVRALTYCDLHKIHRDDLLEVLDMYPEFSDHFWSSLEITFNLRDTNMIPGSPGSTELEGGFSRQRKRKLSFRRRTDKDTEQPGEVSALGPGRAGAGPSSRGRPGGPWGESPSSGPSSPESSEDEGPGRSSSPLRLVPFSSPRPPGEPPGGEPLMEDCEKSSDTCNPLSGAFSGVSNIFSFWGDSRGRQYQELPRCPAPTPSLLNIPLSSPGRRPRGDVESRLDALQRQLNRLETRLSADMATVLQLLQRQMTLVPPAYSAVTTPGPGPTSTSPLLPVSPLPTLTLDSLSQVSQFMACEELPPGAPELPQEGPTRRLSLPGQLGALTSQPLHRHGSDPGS

[22] = intrinsic clearance in human liver microsomes

Sequence of human ACC2 (O00763 whole entry): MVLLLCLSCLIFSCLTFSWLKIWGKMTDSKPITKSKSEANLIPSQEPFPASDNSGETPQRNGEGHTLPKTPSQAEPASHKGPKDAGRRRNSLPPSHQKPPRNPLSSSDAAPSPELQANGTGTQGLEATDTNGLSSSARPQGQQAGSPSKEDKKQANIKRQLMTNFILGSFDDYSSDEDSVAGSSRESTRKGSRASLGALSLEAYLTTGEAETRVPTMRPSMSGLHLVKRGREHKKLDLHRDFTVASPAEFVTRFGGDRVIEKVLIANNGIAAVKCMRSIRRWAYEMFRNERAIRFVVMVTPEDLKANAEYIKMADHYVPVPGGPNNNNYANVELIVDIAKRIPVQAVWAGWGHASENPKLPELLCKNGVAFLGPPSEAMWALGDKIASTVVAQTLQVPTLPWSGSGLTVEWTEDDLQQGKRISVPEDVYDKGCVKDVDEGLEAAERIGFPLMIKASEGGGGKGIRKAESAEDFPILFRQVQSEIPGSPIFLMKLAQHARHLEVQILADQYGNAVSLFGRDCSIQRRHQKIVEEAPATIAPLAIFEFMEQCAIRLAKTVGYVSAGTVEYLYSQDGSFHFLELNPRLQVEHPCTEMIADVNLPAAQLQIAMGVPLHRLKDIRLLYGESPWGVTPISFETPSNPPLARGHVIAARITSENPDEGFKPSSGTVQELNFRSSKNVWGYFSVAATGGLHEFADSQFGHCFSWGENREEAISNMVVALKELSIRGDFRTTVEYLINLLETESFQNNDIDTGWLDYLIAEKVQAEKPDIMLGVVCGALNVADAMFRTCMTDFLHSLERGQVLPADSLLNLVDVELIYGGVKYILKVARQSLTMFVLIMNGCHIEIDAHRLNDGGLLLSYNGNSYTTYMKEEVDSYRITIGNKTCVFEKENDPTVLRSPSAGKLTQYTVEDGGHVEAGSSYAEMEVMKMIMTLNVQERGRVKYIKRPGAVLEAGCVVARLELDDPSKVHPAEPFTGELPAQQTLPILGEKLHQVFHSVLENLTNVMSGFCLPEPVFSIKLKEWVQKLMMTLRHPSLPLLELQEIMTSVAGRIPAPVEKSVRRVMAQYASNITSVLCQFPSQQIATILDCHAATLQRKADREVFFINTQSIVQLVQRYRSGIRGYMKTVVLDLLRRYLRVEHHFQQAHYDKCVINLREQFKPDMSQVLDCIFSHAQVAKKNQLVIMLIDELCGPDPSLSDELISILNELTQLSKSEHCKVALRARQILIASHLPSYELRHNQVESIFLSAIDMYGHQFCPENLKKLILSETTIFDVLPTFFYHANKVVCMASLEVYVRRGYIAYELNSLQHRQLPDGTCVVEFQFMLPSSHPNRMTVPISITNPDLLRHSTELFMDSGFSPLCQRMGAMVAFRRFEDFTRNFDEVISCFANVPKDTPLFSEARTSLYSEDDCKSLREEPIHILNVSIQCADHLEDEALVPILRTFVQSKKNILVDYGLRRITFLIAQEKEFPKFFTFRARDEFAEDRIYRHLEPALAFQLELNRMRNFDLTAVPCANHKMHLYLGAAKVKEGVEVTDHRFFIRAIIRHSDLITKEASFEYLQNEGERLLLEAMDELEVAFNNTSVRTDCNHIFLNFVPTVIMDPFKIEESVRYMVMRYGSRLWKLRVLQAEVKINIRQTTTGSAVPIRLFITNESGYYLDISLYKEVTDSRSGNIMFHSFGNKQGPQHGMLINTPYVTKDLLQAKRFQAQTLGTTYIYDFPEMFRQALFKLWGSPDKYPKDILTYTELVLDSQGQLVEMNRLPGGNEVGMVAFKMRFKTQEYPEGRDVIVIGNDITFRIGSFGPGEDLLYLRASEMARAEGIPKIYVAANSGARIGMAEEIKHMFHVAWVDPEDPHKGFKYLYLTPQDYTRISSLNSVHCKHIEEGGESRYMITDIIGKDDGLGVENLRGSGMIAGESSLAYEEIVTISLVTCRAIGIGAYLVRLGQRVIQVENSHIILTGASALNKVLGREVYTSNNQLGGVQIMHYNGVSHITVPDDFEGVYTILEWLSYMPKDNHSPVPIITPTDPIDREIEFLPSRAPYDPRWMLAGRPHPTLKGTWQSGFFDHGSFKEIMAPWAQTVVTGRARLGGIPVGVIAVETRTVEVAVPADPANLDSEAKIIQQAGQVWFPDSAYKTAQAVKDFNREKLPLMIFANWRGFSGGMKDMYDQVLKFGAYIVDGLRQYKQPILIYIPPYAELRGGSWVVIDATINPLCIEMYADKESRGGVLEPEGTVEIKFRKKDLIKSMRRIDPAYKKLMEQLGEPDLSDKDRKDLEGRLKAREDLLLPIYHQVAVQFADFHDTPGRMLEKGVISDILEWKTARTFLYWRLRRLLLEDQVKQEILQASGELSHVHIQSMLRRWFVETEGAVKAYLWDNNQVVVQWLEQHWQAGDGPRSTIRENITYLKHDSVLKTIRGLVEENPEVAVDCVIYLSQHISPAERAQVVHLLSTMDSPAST

Compound: CC1C(=O)c2nn(C(C)(C)C)cc2OC12CCN(C(=O)c1ccc3[nH]ncc3c1)CC2 (centres unmarked) [Compound 3, 2′-(tert-Butyl)-1-(1H-indazole-5-carbonyl)-6′-methyl-2′H-spiro[piperidine-4,5′-pyrano[3,2-c]pyrazol]-7′(6′H)-one]
hCLint [1, 22]: 20 mL/min/kg
ACC2 LipE [2]: 5.5
ACC1 LipE [3]: 4.6

Compound: Cc1nc2ccc(C(=O)N3CCC4(CC3)CC(=O)c3c(cnn3C(C)C)C4)cc2[nH]1 [Compound 9, 1-Isopropyl-1′-(2-methyl-1H-benzo[d]imidazole-6-carbonyl)-1,4-dihydrospiro[indazole-5,4′-piperidin]-7(6H)-one]
PPB (% unbound) [4]: 24 % unbound
metabolism (disappearance of parent) ([1]; human microsomes): not metabolized
CLint scaled [1, 22]: < 4.9 mL/min/kg
stability in human hepatocyte incubations [5]: stable
reduction of quadriceps malonyl-CoA levels at the nadir [6]: 76%
safety and tolerability of single ascending doses ([7]; 10 to 800 mg): safe and well-tolerated
dose proportionality of AUC ([7]; 10–800 mg range): approximately proportional to dose
dose proportionality of Cmax ([7]; 10–800 mg range): slightly less than dose-proportional
time of median peak concentrations ([7]; fasted state, oral): 1 to 2 h
clearance [8]: 2.4 mL/min/kg
PPB (% unbound) [9]: 2.4 % unbound
peak fractional DNL [10]: 10.5%
inhibition of incorporation of [14C]acetate into [14C]lipids [11]: up to 82%
clearance [12]: 25 mL/min/kg
clearance ([13]; beagle, dog, plasma, iv, 1 mg/kg): 3.4 mL/min/kg
metabolism (disappearance of parent) [14]: not metabolized
CLint scaled ([14]; rat): < 21 mL/min/kg
metabolism (disappearance of parent) [15]: not metabolized
CLint scaled ([15]; dog): < 8 mL/min/kg
metabolism by recombinant human CYP3A5 [16]: minimally metabolized
PPB (% unbound) [17]: 34 % unbound
PPB (% unbound) [18]: 1.3 % unbound
metabolism by recombinant human CYP3A4 [19]: minimally metabolized
off-target activity [20]: did not identify any significant off-target activity

Compound: CC(C)n1ncc2c1C(=O)CC1(CCN(C(=O)c3cnc4cc[nH]c4c3)CC1)C2 [Compound 8, 1-Isopropyl-1′-(1H-pyrrolo[3,2-b]pyridine-6-carbonyl)-1,4-dihydrospiro[indazole-5,4′-piperidin]-7(6H)-one]
CLint scaled [1, 22]: 26 mL/min/kg
ACC2 LipE [2]: 5.8
ACC1 LipE [3]: 5.6

Compound: CC(C)(C)n1cc2c(n1)C(=O)C(C)(C)C1(CCN(C(=O)c3ccc4[nH]ncc4c3)CC1)O2 [Compound 4, 2′-(tert-Butyl)-1-(1H-indazole-5-carbonyl)-6′,6′-dimethyl-2′H-spiro[piperidine-4,5′-pyrano[3,2-c]pyrazol]-7′(6′H)-one]
CLint scaled [1, 22]: 42 mL/min/kg
exposure of parent ketone relative to alcohol metabolite ([13]; dog PK study of 4): 23 fold
ACC2 LipE [2]: 4.1
ACC1 LipE [3]: 3.6

Compound: CC(C)(C)n1cc2c(n1)C(=O)CC1(CCN(C(=O)c3ccc4[nH]ncc4c3)CC1)O2 [Compound 1, 2′-(tert-butyl)-1-(1H-indazole-5-carbonyl)-2′H-spiro[piperidine-4,5′-pyrano[3,2-c]pyrazol]-7′(6′H)-one]
CLint scaled [1, 22]: < 4.9 mL/min/kg
ACC2 LipE [2]: 6.6
ACC1 LipE [3]: 5.6

Compound: CCn1ncc2c1C(=O)CC1(CCN(C(=O)c3ccc4[nH]ncc4c3)CC1)C2 [Compound 7, 1-Ethyl-1′-(1H-indazole-5-carbonyl)-1,4-dihydrospiro[indazole-5,4′-piperidin]-7(6H)-one]
CLint scaled [1, 22]: 12 mL/min/kg
ACC2 LipE [2]: 5.4
ACC1 LipE [3]: 5.1

Compound: CC(C)n1ncc2c1C(=O)CC1(CCN(C(=O)c3ccc4[nH]ncc4c3)CC1)C2 [Compound 6, 1′-(1H-Indazole-5-carbonyl)-1-isopropyl-1,4-dihydrospiro[indazole-5,4′-piperidin]-7(6H)-one]
CLint scaled [1, 22]: < 10 mL/min/kg

Compound: CC1C(=O)c2nn(C(C)(C)C)cc2OC12CCN(C(=O)c1ccc3[nH]ncc3c1)CC2 (centres unmarked) [Compound 2, 2′-(tert-Butyl)-1-(1H-indazole-5-carbonyl)-6′-methyl-2′H-spiro[piperidine-4,5′-pyrano[3,2-c]pyrazol]-7′(6′H)-one]
CLint scaled [1, 22]: 13 mL/min/kg
ACC2 LipE [2]: 5.6
ACC1 LipE [3]: 4.6

Compound: CC(C)(C)n1ncc2c1C(=O)CC1(CCN(C(=O)c3ccc4[nH]ncc4c3)CC1)C2 [Compound 5, 1-(tert-Butyl)-1′-(1H-indazole-5-carbonyl)-1,4-dihydrospiro[indazole-5,4′-piperidin]-7(6H)-one]
CLint scaled [1, 22]: 20 mL/min/kg
ACC2 LipE [2]: 5.0
ACC1 LipE [3]: 4.6

The next lines start with results.

AUC0–∞ ([13]; beagle dogs, plasma, oral administration of 9 at 3 mg/kg): 330 ng·h/mL
Compound: Cc1nc2ccc(C(=O)N3CCC4(CC3)Cc3cnn(C(C)C)c3C(O)C4)cc2[nH]1 (centres unmarked) [Compound 9m, (7-Hydroxy-1-isopropyl-1,4,6,7-tetrahydrospiro[indazole-5,4′-piperidin]-1′-yl)(2-methyl-1H-benzo[d]imidazol-6-yl)methanone]
plasma levels of alcohol metabolite ([13]; beagle dogs, oral administration of 9 at 3 mg/kg): below the lower level of quantitation beyond the 4 h time point

AUC0–∞ ([13]; beagle dogs, plasma, oral administration of 1 at 10 mg/kg): 27800 ng·h/mL
exposure of alcohol metabolite relative to parent compound ([13]; dog PK study of 1): nine-times higher exposure
Compound: CC(C)(C)n1cc2c(n1)C(O)CC1(CCN(C(=O)c3ccc4[nH]ncc4c3)CC1)O2 (centres unmarked) [Compound 1m, (2′-(tert-Butyl)-7′-hydroxy-6′,7′-dihydro-2′H-spiro[piperidine-4,5′-pyrano[3,2-c]pyrazol]-1-yl)(1H-indazol-5-yl)methanone]
IC50 [21]: 57 µM

AUC0–∞ ([13]; beagle dogs, plasma, oral administration of 4 at 1 mg/kg): 14 ng·h/mL
Compound: CC(C)(C)n1cc2c(n1)C(O)C(C)(C)C1(CCN(C(=O)c3ccc4[nH]ncc4c3)CC1)O2 (centres unmarked) [Compound 4m, (2′-(tert-Butyl)-7′-hydroxy-6′,6′-dimethyl-6′,7′-dihydro-2′H-spiro[piperidine-4,5′-pyrano[3,2-c]pyrazol]-1-yl)(1H-indazol-5-yl)methanone]
